Measured values reported in US4689318A, “GRF analogs” (The Salk Institute for Biological Studies, priority 1985, dated 1987).
No end group written: not given here.

System: cells of rat pituitary glands
Experiment: in vitro GH release from cultured rat pituitary cells, side-by-side with synthetic hGRF(1-40)-OH standard, ir GH by radioimmunoassay
Type: cell-based
Conditions: equimolar concentrations; rat pituitary cell cultures; 4 hours incubation; immunoreactive GH in culture medium
Experimental: As an example of testing the effectiveness of the synthetic peptide of Example I to promote the release of growth hormone, in vitro assays are carried out using synthetic hGRF(1-40)-OH as a standard in side-by-side comparison with equimolar concentrations of the various other analogs and fragments synthesized. Cultures are used which include cells of rat pituitary glands removed four days previous to testing. Cultures which are considered optimal for the secretion of growth hormone are used for the comparative testing, in the general manner described in Vale et al. Endocrinology, 91, 562-572 (1972) and as more particularly described in Vale et al., Endocrinology, 112, 1553-1555 (1983). Incubation with the substance to be tested is carried out for 4 hours, and aliquots of the culture medium are removed and processed to measure their respective content of immunoreactive GH(ir GH) by a well-characterized radioimmunoassay.

Row | Substance | potency to promote the release of growth hormone relative to the hpGRF(1-40)-OH standard
1 | YADAIFSSAYRRLLAQLASRRLLQELLAR [Example II, [Ser^7,8,19, Ala^9,15,18,28, Arg^12,21, Leu^13,26,27]-hGRF(1-29)-OH] | equivalent to the hpGRF(1-40)-OH standard
2 | YADAIFSSAYRRLLAQLASRRLLQELLAR-NH2 [Example I, [Ser^7,8,19, Ala^9,15,18,28, Arg^12,21, Leu^13,26,27]-hGRF(1-29)-NH2] | equivalent to the hpGRF(1-40)-OH standard
